Values of other authors as cited in patent publication US20130158016A1, “ANESTHETIC ASSOCIATION, ANESTHETIC COMPOSITION, AND […] VETERINARY USE” (Ouro Fino Participacoes e Empreendimentsos S/A, priority 2010, published 2013).

Test system: female dogs
Settings: 2 mg/kg intravenously (slow), prophylactic

COc1cccc(C2(O)CCCCC2CN(C)C)c1 (stereo not drawn) [tramadol]
analgesia after ovariosalpingohisterectomy: analgesia similar to that produced by morphine
effect on expired concentration of isoflurane: reducing the expired concentration of isoflurane
neuroendocrine response to pain (catecholamine and cortisol): reducing the peaks of catecholamine and cortisol
